Where two headings read alike, the source gives them in different places.
Experiments:
VCaP cells = assay: VCaP growth inhibition assay (CTG); type: cell-based; settings: Homo sapiens, 216 h, 30 pM R1881, 9 days
Description: VCaP cells (ATCC Cat #CRL-2876) are plated at 1×10^4 cells per well of a white plastic 96-well cluster plate (Thermo Scientific Nunc Cat #165306) in 100 uL phenol red-free DMEM (Gibco Cat #21063-029) media with 5% CSS (Omega Scientific Cat #FB-04). Cluster plates are returned to the incubator (37*C/5% CO2) for 72 hours prior to treatment. Just prior to treatment, 100 uL of phenol red-free DMEM/5% CSS and 60 pM R1881 (Sigma Cat #R0908-10 mg) was added to each well of the cluster plates (Final R1881 concentration=30 pM). Compounds (200X) were added to each well in a volume of 1 uL, with serial dilutions (1:5) from 20 uM to 2 pM (final concentrations in well are 100 nM to 10 fM). Cluster plates are returned to the incubator for 9 days.
After the 9-day treatment period, media was removed from the cluster plates by inversion and 100 uL room temperature CTG reagent (Promega Cat #G7573) is added to each well. The cluster plates are placed on a shaker and incubated at room temperature for 20 minutes. Following this shaking/incubation, cluster plates are read on a luminometer (BMG ClarioStar). IC50 values are obtained by graphing the RLU data vs. compound concentration with nonlinear regression 4-parameter logistic curves (GraphPad Prism).

AR / CBP ternary complex = AR / CBP ternary complex (Homo sapiens, UniProt P10275+Q92793); assay: Ternary complex formation assay (sandwich ELISA, AR capture, CBP antibody detection) in VCaP cell lysates; type: cell-based
AR / CBP ternary complex, sequence (P10275 whole entry): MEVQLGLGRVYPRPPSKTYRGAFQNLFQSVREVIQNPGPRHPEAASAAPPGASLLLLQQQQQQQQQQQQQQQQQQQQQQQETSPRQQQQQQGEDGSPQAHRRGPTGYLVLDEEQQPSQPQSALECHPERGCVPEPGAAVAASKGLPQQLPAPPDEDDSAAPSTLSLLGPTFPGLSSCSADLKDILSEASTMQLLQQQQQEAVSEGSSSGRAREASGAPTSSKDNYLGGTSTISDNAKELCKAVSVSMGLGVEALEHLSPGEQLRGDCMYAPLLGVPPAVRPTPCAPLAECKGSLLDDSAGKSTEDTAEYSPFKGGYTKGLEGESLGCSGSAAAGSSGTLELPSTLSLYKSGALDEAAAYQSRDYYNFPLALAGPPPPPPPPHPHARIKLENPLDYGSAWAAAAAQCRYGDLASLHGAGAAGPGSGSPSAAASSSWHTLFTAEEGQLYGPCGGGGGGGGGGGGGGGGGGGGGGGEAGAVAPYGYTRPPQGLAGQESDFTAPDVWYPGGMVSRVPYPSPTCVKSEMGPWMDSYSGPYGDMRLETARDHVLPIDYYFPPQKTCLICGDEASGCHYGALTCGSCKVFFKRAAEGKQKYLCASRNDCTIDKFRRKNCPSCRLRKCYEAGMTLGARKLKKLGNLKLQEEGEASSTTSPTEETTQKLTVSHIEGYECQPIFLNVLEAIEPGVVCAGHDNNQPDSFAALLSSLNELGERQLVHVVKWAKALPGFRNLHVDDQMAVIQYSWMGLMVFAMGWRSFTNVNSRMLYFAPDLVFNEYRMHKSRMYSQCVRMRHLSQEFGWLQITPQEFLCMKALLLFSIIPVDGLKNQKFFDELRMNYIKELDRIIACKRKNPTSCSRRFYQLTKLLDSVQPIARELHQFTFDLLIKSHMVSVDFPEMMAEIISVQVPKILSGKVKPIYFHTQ
AR / CBP ternary complex, sequence (Q92793 2-2442): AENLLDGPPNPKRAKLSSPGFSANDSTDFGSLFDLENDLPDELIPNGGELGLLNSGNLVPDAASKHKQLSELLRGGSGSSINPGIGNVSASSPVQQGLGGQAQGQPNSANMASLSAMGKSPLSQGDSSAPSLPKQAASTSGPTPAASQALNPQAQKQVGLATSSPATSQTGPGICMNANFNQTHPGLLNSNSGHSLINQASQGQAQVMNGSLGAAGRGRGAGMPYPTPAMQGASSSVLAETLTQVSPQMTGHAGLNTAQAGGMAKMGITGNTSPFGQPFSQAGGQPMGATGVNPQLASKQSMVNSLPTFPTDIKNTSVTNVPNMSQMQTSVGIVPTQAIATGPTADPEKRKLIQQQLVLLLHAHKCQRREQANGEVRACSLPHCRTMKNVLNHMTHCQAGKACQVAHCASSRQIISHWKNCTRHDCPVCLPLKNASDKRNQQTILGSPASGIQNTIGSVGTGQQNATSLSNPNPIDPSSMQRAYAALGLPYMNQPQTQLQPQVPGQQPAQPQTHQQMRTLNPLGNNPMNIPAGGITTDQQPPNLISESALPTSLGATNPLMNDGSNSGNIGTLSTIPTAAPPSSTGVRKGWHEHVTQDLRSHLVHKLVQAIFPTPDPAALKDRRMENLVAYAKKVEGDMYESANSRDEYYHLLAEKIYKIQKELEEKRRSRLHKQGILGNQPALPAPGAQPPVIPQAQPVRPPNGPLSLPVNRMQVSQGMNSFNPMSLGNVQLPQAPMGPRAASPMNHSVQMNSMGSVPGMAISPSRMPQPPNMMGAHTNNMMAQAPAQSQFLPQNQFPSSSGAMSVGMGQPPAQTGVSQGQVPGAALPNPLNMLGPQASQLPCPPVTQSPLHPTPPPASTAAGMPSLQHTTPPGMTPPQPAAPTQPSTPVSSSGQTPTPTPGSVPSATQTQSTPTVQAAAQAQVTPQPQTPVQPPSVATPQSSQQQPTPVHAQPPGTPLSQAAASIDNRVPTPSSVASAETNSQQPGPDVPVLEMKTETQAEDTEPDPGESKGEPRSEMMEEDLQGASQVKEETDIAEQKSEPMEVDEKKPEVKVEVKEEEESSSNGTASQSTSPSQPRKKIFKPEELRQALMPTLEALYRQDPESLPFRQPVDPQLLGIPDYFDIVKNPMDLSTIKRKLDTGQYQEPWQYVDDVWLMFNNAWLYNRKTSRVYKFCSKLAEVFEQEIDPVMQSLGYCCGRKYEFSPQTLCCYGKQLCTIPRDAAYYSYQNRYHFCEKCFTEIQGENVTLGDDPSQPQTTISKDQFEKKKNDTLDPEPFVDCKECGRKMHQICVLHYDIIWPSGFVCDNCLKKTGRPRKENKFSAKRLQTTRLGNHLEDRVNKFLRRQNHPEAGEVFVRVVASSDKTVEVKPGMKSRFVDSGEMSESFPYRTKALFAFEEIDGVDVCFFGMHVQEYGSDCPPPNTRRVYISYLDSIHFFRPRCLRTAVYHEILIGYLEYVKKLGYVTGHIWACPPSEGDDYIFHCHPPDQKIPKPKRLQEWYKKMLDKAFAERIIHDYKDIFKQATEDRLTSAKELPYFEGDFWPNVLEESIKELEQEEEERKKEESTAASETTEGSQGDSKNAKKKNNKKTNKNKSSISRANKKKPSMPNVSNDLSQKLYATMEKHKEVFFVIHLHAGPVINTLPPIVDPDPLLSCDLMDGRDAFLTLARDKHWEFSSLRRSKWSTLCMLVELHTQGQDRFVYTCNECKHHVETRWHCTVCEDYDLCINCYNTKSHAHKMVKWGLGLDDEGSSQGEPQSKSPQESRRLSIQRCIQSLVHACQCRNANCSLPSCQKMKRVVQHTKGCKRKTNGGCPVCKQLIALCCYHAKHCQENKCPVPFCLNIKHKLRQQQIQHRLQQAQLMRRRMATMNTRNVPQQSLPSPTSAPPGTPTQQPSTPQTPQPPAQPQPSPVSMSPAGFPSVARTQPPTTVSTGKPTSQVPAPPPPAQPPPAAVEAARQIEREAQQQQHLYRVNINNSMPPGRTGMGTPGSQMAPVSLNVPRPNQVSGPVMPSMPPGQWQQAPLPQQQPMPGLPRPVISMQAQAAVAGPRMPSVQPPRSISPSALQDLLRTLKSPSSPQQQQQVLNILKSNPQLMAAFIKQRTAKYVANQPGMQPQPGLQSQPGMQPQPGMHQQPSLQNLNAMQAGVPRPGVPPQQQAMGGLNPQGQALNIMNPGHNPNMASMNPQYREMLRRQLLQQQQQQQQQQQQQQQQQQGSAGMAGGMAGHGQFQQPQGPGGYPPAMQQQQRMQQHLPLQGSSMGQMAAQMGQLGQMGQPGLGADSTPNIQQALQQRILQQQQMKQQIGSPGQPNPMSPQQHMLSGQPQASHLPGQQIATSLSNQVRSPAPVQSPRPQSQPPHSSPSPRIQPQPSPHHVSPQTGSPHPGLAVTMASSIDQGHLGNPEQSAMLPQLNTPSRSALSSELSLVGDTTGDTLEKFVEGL
In short: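 Sandwich ELISA: plates were coated with anti-AR antibody (AR441) and given lysates of VCaP cells treated 1.5 h with bifunctional compound in charcoal-stripped serum. Co-captured CBP or p300 was probed with rabbit mAbs and HRP secondary. Chemifluorescent signal (ex 570/em 585) was read at 0, 5 and 15 min.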

[1] = read-out: Average Ternary Complex, treated 1.5 hours, rabbit CBP or p300 antibody detection
[2] = treated 1.5 hours, rabbit CBP or p300 antibody detection, average, read-out: Average Ternary Complex

| IC50 (VCaP cells) | EC50 (AR / CBP ternary complex; [2]) | SMILES | EC50 (AR / CBP ternary complex; [1]) |
| --- | --- | --- | --- |
| ≤ 0.1 nM | < 1 nM | CC(=O)N1CCc2c(c(N3CCCc4cc(-c5cnn(C)c5)c(C(F)F)cc43)nn2C2CCN(C(=O)CC3CCN(c4ccc(C(=O)N[C@H]5CC[C@H](Oc6ccc(C#N)c(Cl)c6)CC5)nn4)CC3)CC2)C1 [Compound 14, 6-[4-[2-[4-[5-acetyl-3-[7-(difluoromethyl)-6-(1-methylpyrazol-4-yl)-3,4-dihydro-2H-quinolin-1-yl]-6,7-dihydro-4H-pyrazolo[4,3-c]pyridin-1-yl]-1-piperidyl]-2-oxo-ethyl]-1-piperidyl]-N-[4-(3-chloro-4-cyano-phenoxy)cyclohexyl]pyridazine-3-carboxamide] | – |
| ≤ 0.1 nM | < 1 nM | CC(=O)N1CCc2c(c(N3CCCc4cc(-c5cnn(C)c5)c(C(F)F)cc43)nn2C2CCN(CC3CCN(c4ccc(C(=O)N[C@H]5CC[C@H](Oc6ccc(C#N)c(Cl)c6)CC5)nn4)CC3)CC2)C1 [Compound 16, 6-[4-[[4-[5-acetyl-3-[7-(difluoromethyl)-6-(1-methylpyrazol-4-yl)-3,4-dihydro-2H-quinolin-1-yl]-6,7-dihydro-4H-pyrazolo[4,3-c]pyridin-1-yl]-1-piperidyl]methyl]-1-piperidyl]-N-[4-(3-chloro-4-cyano-phenoxy)cyclohexyl]pyridazine-3-carboxamide] | – |
| ≤ 0.1 nM | < 1 nM | CC(=O)N1CCc2c(c(N3CCCc4cc(-c5cnn(C)c5)c(C(F)F)cc43)nn2C2CCN(CC3CCN(c4ccc(C(=O)N[C@H]5CC[C@H](Oc6ccc(C#N)c(Cl)c6)CC5)cn4)CC3)CC2)C1 [Compound 18, 6-[4-[[4-[5-acetyl-3-[7-(difluoromethyl)-6-(1-methylpyrazol-4-yl)-3,4-dihydro-2H-quinolin-1-yl]-6,7-dihydro-4H-pyrazolo[4,3-c]pyridin-1-yl]-1-piperidyl]methyl]-1-piperidyl]-N-[4-(3-chloro-4-cyano-phenoxy)cyclohexyl]pyridine-3-carboxamide] | – |
| ≤ 0.1 nM | < 1 nM | CC(=O)N1CCc2c(c(-c3cccc4cc(-c5cnn(CC6CCN(c7ccc(C(=O)N[C@H]8CC[C@H](Oc9ccc(C#N)c(Cl)c9)CC8)nn7)CC6)c5)ncc34)nn2C2CCOCC2)C1 [Compound 22, 6-[4-[[4-[8-(5-acetyl-1-tetrahydropyran-4-yl-6,7-dihydro-4H-pyrazolo[4,3-c]pyridin-3-yl)-3-isoquinolyl]pyrazol-1-yl]methyl]-1-piperidyl]-N-[4-(3-chloro-4-cyano-phenoxy)cyclohexyl]pyridazine-3-carboxamide] | – |
| ≤ 0.1 nM | < 1 nM | CC(=O)N1CCc2c(c(-c3cccc4cc(-c5cnn(CCOC6CCN(c7ccc(C(=O)N[C@H]8CC[C@H](Oc9ccc(C#N)c(Cl)c9)CC8)nn7)CC6)c5)ncc34)nn2C2CCOCC2)C1 [Compound 26, 6-[4-[2-[4-[8-(5-acetyl-1-tetrahydropyran-4-yl-6,7-dihydro-4H-pyrazolo[4,3-c]pyridin-3-yl)-3-isoquinolyl]pyrazol-1-yl]ethoxy]-1-piperidyl]-N-[4-(3-chloro-4-cyano-phenoxy)cyclohexyl]pyridazine-3-carboxamide] | – |

The remaining lines, values behind:

| SMILES | IC50 (VCaP cells) | EC50 (AR / CBP ternary complex; [2]) | EC50 (AR / CBP ternary complex; [1]) |
| --- | --- | --- | --- |
| CC(=O)N1CCc2c(c(N3CCCc4cc(-c5cnn(C)c5)c(C(F)F)cc43)nn2C2CCN(C(=O)COC3CCN(c4ccc(C(=O)N[C@H]5CC[C@H](N(C)c6ccc(C#N)c(Cl)c6)CC5)cc4)CC3)CC2)C1 [Compound 12, 4-[4-[2-[4-[5-acetyl-3-[7-(difluoromethyl)-6-(1-methylpyrazol-4-yl)-3,4-dihydro-2H-quinolin-1-yl]-6,7-dihydro-4H-pyrazolo[4,3-c]pyridin-1-yl]-1-piperidyl]-2-oxo-ethoxy]-1-piperidyl]-N-[4-(3-chloro-4-cyano-N-methyl-anilino)cyclohexyl]benzamide] | ≤ 0.1 nM | – | < 1 nM |
| CC(=O)N1CCc2c(c(N3CCCc4cc(-c5cnn(C)c5)c(C(F)F)cc43)nn2C2CCN(C(=O)CC3CCN(c4ccc(C(=O)N[C@H]5CC[C@H](N(C)c6ccc(C#N)c(Cl)c6)CC5)cc4)CC3)CC2)C1 [Compound 13, 4-[4-[2-[4-[5-acetyl-3-[7-(difluoromethyl)-6-(1-methylpyrazol-4-yl)-3,4-dihydro-2H-quinolin-1-yl]-6,7-dihydro-4H-pyrazolo[4,3-c]pyridin-1-yl]-1-piperidyl]-2-oxo-ethyl]-1-piperidyl]-N-[4-(3-chloro-4-cyano-N-methyl-anilino)cyclohexyl]benzamide] | 0.1 to 1 nM | – | < 1 nM |
| CC(=O)N1CCc2c(c(-c3cccc4cc(-c5ccc(CC6CCN(c7ccc(C(=O)N[C@H]8CC[C@H](Oc9ccc(C#N)c(Cl)c9)CC8)nn7)CC6)nc5)ncc34)nn2C)C1 [Compound 19, 6-[4-[[5-[8-(5-acetyl-1-methyl-6,7-dihydro-4H-pyrazolo[4,3-c]pyridin-3-yl)-3-isoquinolyl]-2-pyridyl]methyl]-1-piperidyl]-N-[4-(3-chloro-4-cyano-phenoxy)cyclohexyl]pyridazine-3-carboxamide] | ≤ 0.1 nM | > 100 nM | – |
| CC(=O)N1CCc2c(c(-c3cccc4cc(-c5ccc(CCC6CCN(c7ccc(C(=O)N[C@H]8CC[C@H](Oc9ccc(C#N)c(Cl)c9)CC8)nn7)CC6)nc5)ncc34)nn2C)C1 [Compound 20, 6-[4-[2-[5-[8-(5-acetyl-1-methyl-6,7-dihydro-4H-pyrazolo[4,3-c]pyridin-3-yl)-3-isoquinolyl]-2-pyridyl]ethyl]-1-piperidyl]-N-[4-(3-chloro-4-cyano-phenoxy)cyclohexyl]pyridazine-3-carboxamide] | ≤ 0.1 nM | < 1 nM | – |
| CC(=O)N1CCc2c(c(-c3cccc4cc(-c5ccc(COCC6CCN(c7ccc(C(=O)N[C@H]8CC[C@H](Oc9ccc(C#N)c(Cl)c9)CC8)nn7)CC6)nc5)ncc34)nn2C)C1 [Compound 21, 6-[4-[[5-[8-(5-acetyl-1-methyl-6,7-dihydro-4H-pyrazolo[4,3-c]pyridin-3-yl)-3-isoquinolyl]-2-pyridyl]methoxymethyl]-1-piperidyl]-N-[4-(3-chloro-4-cyano-phenoxy)cyclohexyl]pyridazine-3-carboxamide] | ≤ 0.1 nM | < 1 nM | – |
| CC(=O)N1CCc2c(c(-c3cccc4cc(-c5ccc(CC6CCN(c7ccc(C(=O)N[C@H]8CC[C@H](Oc9ccc(C#N)c(Cl)c9)CC8)nn7)CC6)nc5)ncc34)nn2C2CCOCC2)C1 [Compound 23, 6-[4-[[5-[8-(5-acetyl-1-tetrahydropyran-4-yl-6,7-dihydro-4H-pyrazolo[4,3-c]pyridin-3-yl)-3-isoquinolyl]-2-pyridyl]methyl]-1-piperidyl]-N-[4-(3-chloro-4-cyano-phenoxy)cyclohexyl]pyridazine-3-carboxamide] | 0.1 to 1 nM | < 1 nM | – |
| CC(=O)N1CCc2c(c(-c3cccc4cc(-c5ccc(CCC6CCN(c7ccc(C(=O)N[C@H]8CC[C@H](Oc9ccc(C#N)c(Cl)c9)CC8)nn7)CC6)nc5)ncc34)nn2C2CCOCC2)C1 [Compound 25, 6-[4-[2-[5-[8-(5-acetyl-1-tetrahydropyran-4-yl-6,7-dihydro-4H-pyrazolo[4,3-c]pyridin-3-yl)-3-isoquinolyl]-2-pyridyl]ethyl]-1-piperidyl]-N-[4-(3-chloro-4-cyano-phenoxy)cyclohexyl]pyridazine-3-carboxamide] | ≤ 0.1 nM | < 1 nM | – |
| CC(=O)N1CCc2c(c(-c3cccc4cc(-c5ccc(CCOC6CCN(c7ccc(C(=O)N[C@H]8CC[C@H](Oc9ccc(C#N)c(Cl)c9)CC8)nn7)CC6)nc5)ncc34)nn2C2CCOCC2)C1 [Compound 27, 6-[4-[2-[5-[8-(5-acetyl-1-tetrahydropyran-4-yl-6,7-dihydro-4H-pyrazolo[4,3-c]pyridin-3-yl)-3-isoquinolyl]-2-pyridyl]ethoxy]-1-piperidyl]-N-[4-(3-chloro-4-cyano-phenoxy)cyclohexyl]pyridazine-3-carboxamide] | 0.1 to 1 nM | < 1 nM | – |
| CC(=O)N1CCc2c(c(-c3cccc4cc(-c5ccc(CCN6CCN(c7ccc(C(=O)N[C@H]8CC[C@H](Oc9ccc(C#N)c(Cl)c9)CC8)nn7)CC6)nc5)ncc34)nn2C2CCOCC2)C1 [Compound 28, 6-[4-[2-[5-[8-(5-acetyl-1-tetrahydropyran-4-yl-6,7-dihydro-4H-pyrazolo[4,3-c]pyridin-3-yl)-3-isoquinolyl]-2-pyridyl]ethyl]piperazin-1-yl]-N-[4-(3-chloro-4-cyano-phenoxy)cyclohexyl]pyridazine-3-carboxamide] | ≤ 0.1 nM | < 1 nM | – |
| CC(=O)N1CCc2c(c(-c3cccc4cc(-c5ccc(CCN6CCN(c7ccc(C(=O)N[C@H]8CC[C@H](Oc9ccc(C#N)c(Cl)c9)CC8)nn7)CC6)nc5)ncc34)nn2C)C1 [Compound 30, 6-[4-[2-[5-[8-(5-acetyl-1-methyl-6,7-dihydro-4H-pyrazolo[4,3-c]pyridin-3-yl)-3-isoquinolyl]-2-pyridyl]ethyl]piperazin-1-yl]-N-[4-(3-chloro-4-cyano-phenoxy)cyclohexyl]pyridazine-3-carboxamide] | ≤ 0.1 nM | < 1 nM | – |
